Laboratory results taken from a compilation of properties of binary mixtures (doi:10.1016/j.jct.2020.106232).

Assay: xn = mol fraction of the nth substance listed
Conditions: 100 kPa

CCCC[n+]1ccn(C)c1.O=[N+]([O-])[O-] + CCCCCO
viscosity [mPa·s]
Conditions | 293.15 K | 303.15 K | 313.15 K | 323.15 K
x1 = 0.0824 | 5.32 | 3.84 | 2.94 | –
x1 = 0.1538 | 6.83 | 4.88 | 3.59 | 2.69
x1 = 0.2318 | 8.87 | 6.36 | 4.68 | 3.38
x1 = 0.3425 | 13.1 | 9.46 | 6.76 | 4.63
x1 = 0.4363 | – | 13.2 | 9.14 | 6.19
x1 = 0.5668 | – | 21 | 14 | 9.37
x1 = 0.6481 | 40.3 | 28.1 | – | 12.31
x1 = 0.7481 | – | 41 | 27 | 17.3
x1 = 0.8416 | 94.9 | 59.8 | – | 24.3
x1 = 0.9415 | 160 | 94 | – | –
x1 = 1 | 224 | 125 | 75.1 | 45.2

CCCCCO + CCCC[n+]1ccn(C)c1.O=[N+]([O-])[O-]
x2 = 0
Conditions | viscosity [mPa·s]
293.15 K | 4.03
303.15 K | 3.04
313.15 K | 2.33
323.15 K | 1.81
